How the values were obtained:
Type in all cases: cell-based, human
[1] = test system: breast cancer cell line MDA-MB-231; test: Herceptin-mediated ADCC of MDA-MB-231 cells by PBMC effector cells (Calcein AM release); details: PBMCs activated with the ADCC enhancer (FIG. 3)
Experimental: (§1) Human Peripheral blood mononuclear cells (PBMCs) were isolated by Ficoll™ density gradient centrifugation and resuspended in RPMI containing 2% heat-inactivated FBS. PBMCs at a concentration of 1 to 3 million cells per mL were incubated with 10-500 nM ADCC enhancer in a humidified CO2 incubator for 18-72 hrs. Activated PBMCs were then used as effector cells in NK and ADCC assays. PBMCs activated with the ADCC enhancer were tested for the ability to enhance killing of the NK sensitive target cell line K562 or various tumor cells coated with monoclonal antibodies. Target cells were labeled with the fluorescent dye Calcein AM for 1 hour at 37° C. in a dark humidified CO2 incubator. […] Activated effector cells and labeled target cells were incubated in 96-well tissue culture plates at for 4 hours at 37° C. in a dark humidified CO2 incubator in an assay buffer containing HBSS+Ca/Mg+5% FBS. […] Fluorecence was quantified with a fluorescent microtiter plate reader. The % specific lysis was calculated as (Sample fluorescence-spontaneous fluorescence)*100/(100% fluorescence-spontaneous). 100% fluorescence was determined from wells that contained labeled target cells and detergent such at 0.1% Tween-20 or Triton X-100. Spontaneous fluorescence was determined from wells that contained assay buffer and target cells but not effector cells.

[2] = test system: breast cancer cell line SKBR3; test: Herceptin-mediated ADCC of SKBR3 cells by PBMC effector cells (Calcein AM release); details: PBMCs activated with the ADCC enhancer (FIG. 3)
Experimental: as §1

[3] = test system: rituximab-coated HS-Sultan cells; test: Rituximab-mediated ADCC of HS-Sultan cells with PBMC from donors genotyped for FcgR polymorphisms; details: for baseline ADCC (percent specific lysis): buffer control, E:T 50:1 (FIG. 4); for rituximab-mediated ADCC activity: unstimulated PBMC
Experimental: Percent specific lysis is shown for Rituxan-coated HS-Sultan cells incubated with PBMC effector cells at an E:T ratio of 50:1. PBMCs from a patient with the high affinity genotype FcgR2a131 H/H and FcgR3a V/V (solid rectangles) or a patient with the lower affinity genotype FcgR2a131 […] and FcgR3a V/F (open rectangles) were evaluated for ADCC after stimulation with buffer control (baseline) or stimulation with 500 nM ADCC enhancer.
ADCC is mediated through immune effector cells included NK cells that engage the Fc portion of the monoclonal antibody through specific receptors. Patients with single nucleotide polymorphisms in these receptors such as FcRgamma3a position 158 and FcRgamma2a position 131 have a poorer clinical prognosis presumably from poor ADCC due to a lower affinity of the receptor for the monoclonal antibody. […] To determine if this common polymorphism affects the baseline antibody-dependent cellular cytoxicity (ADCC) response and/or response to the ADCC enhancer molecule of the present invention (Compound VTX-2337), PBMCs from donors were genotyped for the two alleles encoding the F and V isoforms, respectively, and tested in vitro. We analyzed rituximab-mediated ADCC using unstimulated PBMC or VTX-2337-stimulated PBMC from 15 donors, including 10 donors with FF or FV phenotype and 5 donors with VV phenotype.
Blood was collected from healthy donors and PBMCs were isolated using a Ficoll gradient. PBMCs were activated by culturing them in the presence of 500 nM VTX-2337 at 37° C. in a humidified 5% CO2 incubator for 48 hours. Activated PBMCs were then incubated with rituximab-coated HS-Sultan cells loaded at a ratio of 100:1 for 4 hours. Lysis was determined by measuring release of the fluorescent dye Calcein AM from the HS-Sultan cells.

| Compound | killing of Herceptin coated MDA-MB-231 targets [1] | killing of Herceptin coated SKBR3 targets [2] [%] | rituximab-mediated ADCC ([3]; PBMC stimulated with 500 nM VTX-2337 for 48 hours, low affinity FF/FV group, E:T 100:1 (FIG. 5)) [%] | baseline ADCC (percent specific lysis) ([3]; patient with high affinity genotype FcgR2a131 H/H and FcgR3a V/V) | baseline ADCC (percent specific lysis) ([3]; patient with lower affinity genotype FcgR2a131 A/A and FcgR3a V/F) [%] | rituximab-mediated ADCC activity ([3]; FF/FV donors, E:T 100:1 (FIG. 5)) [% specific lysis] | rituximab-mediated ADCC activity ([3]; VV donors, E:T 100:1 (FIG. 5)) [% specific lysis] |
| --- | --- | --- | --- | --- | --- | --- | --- |
| CCCN(CCC)C(=O)C1=Cc2ccc(-c3ccc(C(=O)N4CCCC4)cc3)cc2N=C(N)C1 [ADCC enhancer, {2-amino-8-[4-(pyrrolidinylcarbonyl)phenyl]-(3H-benzo[f]azepin-4-yl)}-N,N-dipropylcarboxamide] | 40-60% | > 80 | 40.0±4.1 |  |  |  |  |
| Rituxan: anti-CD20 monoclonal antibody rituximab (Rituxan) |  |  |  | approximately 30% | 10 | 20.5±2.5 | 31.7±2.9 |

From patent US10016440B2, “Methods of enhancing antibody-dependent cellular cytotoxicity” (VentiRx Pharmaceuticals, Inc., priority 2010, dated 2018)
